Experimental data from publication PMC3582025 (European journal of pharmacology, 2012).
Values joined by “and” are separate entries in the source; they are usually repeats but may differ in a detail not shown here. Equal values may be shown once. Where a name gives a salt, the structure may show the parent alone. Read-outs that look alike come from different tables or passages of the source.

Columns and labels:
[1] = target: norepinephrine transporter (NET) (Homo sapiens, UniProt P23975); test: cell-based; assay type: cell-based
Sequence of norepinephrine transporter (NET) (P23975 whole entry): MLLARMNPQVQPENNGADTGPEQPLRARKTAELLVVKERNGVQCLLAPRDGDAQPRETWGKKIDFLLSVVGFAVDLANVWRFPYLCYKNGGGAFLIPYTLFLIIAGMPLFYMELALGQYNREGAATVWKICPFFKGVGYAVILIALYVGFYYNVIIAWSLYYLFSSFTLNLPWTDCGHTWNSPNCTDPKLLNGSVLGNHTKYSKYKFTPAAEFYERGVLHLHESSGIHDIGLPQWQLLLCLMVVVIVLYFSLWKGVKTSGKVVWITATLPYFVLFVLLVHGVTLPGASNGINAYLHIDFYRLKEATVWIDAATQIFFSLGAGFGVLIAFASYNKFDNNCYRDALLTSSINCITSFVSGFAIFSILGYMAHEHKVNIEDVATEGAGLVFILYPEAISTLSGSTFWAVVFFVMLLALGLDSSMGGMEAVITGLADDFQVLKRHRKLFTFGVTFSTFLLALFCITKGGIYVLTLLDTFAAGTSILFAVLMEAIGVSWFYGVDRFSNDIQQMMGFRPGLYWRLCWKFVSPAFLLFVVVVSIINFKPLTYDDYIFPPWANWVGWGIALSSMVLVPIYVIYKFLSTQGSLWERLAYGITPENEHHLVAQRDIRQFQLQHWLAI

[2] = target: dopamine transporter (DAT) (Homo sapiens, UniProt Q01959); test: cell-based
Sequence of dopamine transporter (DAT) (Q01959 whole entry): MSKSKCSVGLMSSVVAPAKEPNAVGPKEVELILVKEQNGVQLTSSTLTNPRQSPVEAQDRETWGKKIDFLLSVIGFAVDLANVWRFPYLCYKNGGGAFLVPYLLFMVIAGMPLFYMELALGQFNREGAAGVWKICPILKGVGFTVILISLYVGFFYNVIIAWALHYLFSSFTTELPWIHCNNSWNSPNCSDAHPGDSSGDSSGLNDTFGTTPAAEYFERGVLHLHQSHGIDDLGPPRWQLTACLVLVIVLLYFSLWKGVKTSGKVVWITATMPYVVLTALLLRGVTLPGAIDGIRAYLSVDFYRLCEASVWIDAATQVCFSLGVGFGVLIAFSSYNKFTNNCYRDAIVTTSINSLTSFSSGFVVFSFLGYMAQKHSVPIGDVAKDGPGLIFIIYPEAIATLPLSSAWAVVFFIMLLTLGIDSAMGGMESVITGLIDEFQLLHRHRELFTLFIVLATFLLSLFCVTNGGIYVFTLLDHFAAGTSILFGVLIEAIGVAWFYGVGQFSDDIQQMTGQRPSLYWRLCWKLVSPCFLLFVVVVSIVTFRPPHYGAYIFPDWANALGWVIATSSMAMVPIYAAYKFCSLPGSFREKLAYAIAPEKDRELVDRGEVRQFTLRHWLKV

[3] = target: serotonin transporter (SERT) (Homo sapiens, UniProt P31645); test: cell-based; assay type: cell-based
Sequence of serotonin transporter (SERT) (P31645 whole entry): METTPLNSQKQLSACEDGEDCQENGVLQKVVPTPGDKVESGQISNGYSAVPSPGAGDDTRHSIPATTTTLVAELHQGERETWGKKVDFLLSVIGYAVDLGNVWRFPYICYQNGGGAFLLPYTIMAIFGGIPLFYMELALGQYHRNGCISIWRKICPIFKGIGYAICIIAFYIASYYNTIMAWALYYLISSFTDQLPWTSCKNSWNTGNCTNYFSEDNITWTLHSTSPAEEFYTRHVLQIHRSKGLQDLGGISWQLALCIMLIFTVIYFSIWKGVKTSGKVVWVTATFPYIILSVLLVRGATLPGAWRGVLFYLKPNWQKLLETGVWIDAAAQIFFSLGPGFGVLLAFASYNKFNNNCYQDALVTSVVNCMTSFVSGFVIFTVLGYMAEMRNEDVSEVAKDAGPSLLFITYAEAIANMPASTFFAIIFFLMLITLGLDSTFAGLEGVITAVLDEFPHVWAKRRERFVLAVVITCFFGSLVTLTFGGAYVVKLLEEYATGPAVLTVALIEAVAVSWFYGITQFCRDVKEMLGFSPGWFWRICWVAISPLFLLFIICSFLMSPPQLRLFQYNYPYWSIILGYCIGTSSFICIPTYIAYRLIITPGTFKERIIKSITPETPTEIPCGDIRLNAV

[4] = target: 5-HT2B serotonin receptors (Homo sapiens, UniProt P41595); test: Radioligand binding assay; details: for Ki: 5-HT2B receptor affinity Ki
Sequence of 5-HT2B serotonin receptors (P41595 whole entry): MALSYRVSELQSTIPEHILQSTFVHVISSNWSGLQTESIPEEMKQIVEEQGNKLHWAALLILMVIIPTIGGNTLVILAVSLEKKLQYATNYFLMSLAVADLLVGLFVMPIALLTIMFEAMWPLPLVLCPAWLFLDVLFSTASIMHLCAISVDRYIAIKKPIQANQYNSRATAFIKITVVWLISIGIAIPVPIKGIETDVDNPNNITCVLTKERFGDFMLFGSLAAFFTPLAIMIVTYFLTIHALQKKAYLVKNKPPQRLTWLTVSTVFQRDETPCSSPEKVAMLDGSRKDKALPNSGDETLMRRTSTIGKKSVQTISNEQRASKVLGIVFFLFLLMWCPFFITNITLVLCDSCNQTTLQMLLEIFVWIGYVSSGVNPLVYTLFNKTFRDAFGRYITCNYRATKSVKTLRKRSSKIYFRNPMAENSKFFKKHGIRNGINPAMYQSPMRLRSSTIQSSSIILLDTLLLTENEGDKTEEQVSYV

SERT = SERT (Homo sapiens, UniProt P31645); test: Radioligand binding assay
Sequence of SERT (P31645 whole entry): as the sequence (P31645 whole entry) above

α2C adrenoceptors = target: T1, α2C adrenoceptors (Homo sapiens, UniProt P18825); test: Radioligand binding assay; details: α2C adrenoceptor affinity Ki
T1 sequence (P18825 1-462): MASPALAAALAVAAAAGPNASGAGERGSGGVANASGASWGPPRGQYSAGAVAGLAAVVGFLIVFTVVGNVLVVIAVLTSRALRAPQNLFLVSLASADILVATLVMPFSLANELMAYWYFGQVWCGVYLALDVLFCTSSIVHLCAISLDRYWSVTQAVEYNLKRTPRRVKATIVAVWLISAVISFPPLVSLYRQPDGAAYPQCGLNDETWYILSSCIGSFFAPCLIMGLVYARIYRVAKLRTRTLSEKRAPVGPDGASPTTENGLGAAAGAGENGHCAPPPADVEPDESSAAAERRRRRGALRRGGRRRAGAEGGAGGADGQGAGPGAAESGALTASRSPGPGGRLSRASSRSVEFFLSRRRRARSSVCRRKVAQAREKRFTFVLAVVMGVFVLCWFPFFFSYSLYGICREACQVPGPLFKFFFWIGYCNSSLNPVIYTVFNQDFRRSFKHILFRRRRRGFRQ

[5] = target: human cloned 5-HT2B receptor (Homo sapiens, UniProt P41595); test: 5-HT2B functional assay, intracellular Ca++ mobilization; assay type: cell-based; details: HEK-T cells
Sequence of human cloned 5-HT2B receptor (P41595 whole entry): as the sequence (P41595 whole entry) above

DAT = DAT (Homo sapiens, UniProt Q01959); test: Radioligand binding assay
Sequence of DAT (Q01959 whole entry): as the sequence (Q01959 whole entry) above

[6] = test system: serotonin uptake in rat brain synaptosomes; details: ref Martinez-Clemente et al (2011); cited from earlier work
[7] = test system: dopamine uptake in rat brain synaptosomes; details: ref Martinez-Clemente et al (2011); cited from earlier work
NET = NET (Homo sapiens, UniProt P23975); test: Radioligand binding assay
Sequence of NET (P23975 whole entry): as the sequence (P23975 whole entry) above

[8] = NET Ki, inhibition of transporter uptake activity
[9] = DAT Ki, inhibition of transporter uptake activity
[10] = DAT pKi (mean +/- S.E.M), inhibition of transporter uptake activity, N=3
[11] = SERT Ki, inhibition of transporter uptake activity
[12] = NET pKi (mean +/- S.E.M), inhibition of transporter uptake activity, N=3
[13] = inhibition of transporter uptake activity
[14] = SERT pKi (mean +/- S.E.M), inhibition of transporter uptake activity, N=3
[15] = inhibition of transporter uptake activity, N=3

SMILES | Ki [1, 8] | Ki [2, 9] | Ki [2, 10] | Ki [3, 11] | Ki [1, 12] | Ki [3, 14] | other results
CCCC(C(=O)c1cccc2ccccc12)N1CCCC1.Cl (stereo not drawn) [1-Naphyrone, 1-naphthalen-1-yl-2-pyrrolidin-1-ylpentan-1-one hydrochloride] | 536 nM | 48 nM | 47.9 nM | 352 nM |  |  | NET Ki [1]: submicromolar; DAT Ki [2]: submicromolar; Ki ([2]; DAT Ki): < 100 nM; SERT Ki [3]: submicromolar; 5-HT2B receptor affinity Ki [4]: submicromolar; Ki (SERT): < 100 nM
CC(N)Cc1ccc2occc2c1.Cl (stereo not drawn) [5-APB, 1-(benzofuran-5-yl)propan-2-amine hydrochloride] | 180 nM | 265 nM | 501 nM | 811 nM | 468 nM | 1660 nM | Ki (α2C adrenoceptors): < 100 nM; 5-HT2B agonist EC50 [5]: nanomolar; 5-HT2B agonist activity [5]: potent full agonists; NET Ki [1, 13]: submicromolar; Ki (DAT): < 100 nM; DAT Ki [2, 13]: submicromolar; SERT Ki [3, 13]: submicromolar; Ki [4]: < 100 nM and 14 nM
NC1Cc2ccc(I)cc2C1 (stereo not drawn) [5-iod-2-aminoindane, 5-iodo-2,3-dihydro-1H-inden-2-amine hydrochloride] | 311 nM | 1590 nM | 2450 nM | 879 nM | 813 nM | 1780 nM | 
CC(N)Cc1ccc2ccoc2c1.Cl (stereo not drawn) [6-APB, 1-(benzofuran-6-yl)propan-2-amine hydrochloride] | 117 nM | 150 nM | 234 nM | 2700 nM | 302 nM | 5500 nM | Ki (α2C adrenoceptors): 45 nM; 5-HT2B agonist EC50 [5]: nanomolar; 5-HT2B agonist activity [5]: potent full agonists; Ki [4]: 3.7 nM
CN[C@@H](C)Cc1ccc2c(c1)OCO2 [(+)-MDMA, 3,4-methylenedioxymethamphetamine, reference compound] |  |  |  |  |  |  | Ki ([1]; NET Ki): 398 nM; Ki ([1]; NET pKi (mean +/- S.E.M)): 2000 nM; Ki ([2]; DAT Ki): 897 nM; Ki ([2]; DAT pKi (mean +/- S.E.M)): 2400 nM; Ki ([3]; SERT Ki): 948 nM; Ki ([3]; SERT pKi (mean +/- S.E.M)): 2750 nM
CN[C@H](C)Cc1ccc2c(c1)OCO2 [(−)-MDMA, 3,4-methylenedioxymethamphetamine, reference compound] |  |  |  |  |  |  | Ki ([1]; NET Ki): 704 nM; Ki ([1]; NET pKi (mean +/- S.E.M)): 3160 nM; Ki ([2]; DAT Ki): 2420 nM; Ki ([2]; DAT pKi (mean +/- S.E.M)): 6170 nM; Ki ([3]; SERT Ki): 2310 nM
CN(C)CCC=C1c2ccccc2CCc2ccccc21 [Amitriptyline, reference compound] |  |  |  |  |  |  | Ki ([2]; DAT Ki): 4640 nM; Ki ([2]; DAT pKi (mean +/- S.E.M)): 9770 nM
Cc1ccc(C(=O)C(C)NCc2ccccc2)cc1 (stereo not drawn) [Benzedrone, 2-(benzylamino)-1-(4-methylphenyl)propan-1-one hydrochloride] | 1220 nM | 1410 nM and 1490 nM | 2290 nM | > 10000 nM | 3160 nM | 17800 nM | 
c1ccc(C(c2ccccc2)C2CCCCN2)cc1 (stereo not drawn) [Desoxypipradrol, 2-benzhydrylpiperidine hydrochloride] | 213 nM | 32 nM | 50.1 nM | > 10000 nM | 550 nM | 53700 nM | 
CCC(C)CC(C)N (stereo not drawn) [Dimethylamylamine, 4-methylhexan-2-amine hydrochloride] | 649 nM | > 10000 nM | 18200 nM | > 10000 nM | 1700 nM | 178000 nM | 
CNC(C)C(=O)c1ccc(C)cc1.Cl (stereo not drawn) [Mephedrone, 2-methylamino-1-(4-methylphenyl)propan-1-one hydrochloride] | 511 nM | 543 nM | 832 nM | 4940 nM |  | 10200 nM | concentration inhibiting serotonin uptake [6]: submicromolar; 5-HT2B receptor affinity Ki [4]: submicromolar; concentration inhibiting dopamine uptake [7]: submicromolar
CNC(C)Cc1cccs1.Cl (stereo not drawn) [Methiopropamine, methyl[(1-(2-thienyl)]propan-2-amine hydrochloride] |  |  |  |  |  |  | Ki ([1]; read-out: NET Ki, inhibition of transporter uptake activity): 313 nM; Ki ([2]; read-out: DAT Ki, inhibition of transporter uptake activity): 577 nM; Ki ([3]; read-out: SERT Ki, inhibition of transporter uptake activity): > 10000 nM
CNC(C)Cc1cccs1.Cl (stereo not drawn) [Methiopropamine] |  |  |  |  |  |  | NET pKi (mean +/- S.E.M) [1, 15]: 6.09±0.07; DAT pKi (mean +/- S.E.M) [2, 15]: 6.05±0.07; SERT pKi (mean +/- S.E.M) [3, 15]: 4.14±0.07
CC(NCc1ccccc1)C(=O)c1ccc2c(c1)OCO2 (stereo not drawn) [Methylenedioxy-N-benzylcathinone, 2-(benzylamino)-1-(3,4-methylenedioxyphenyl)propan-1-one] | 1630 nM | 637 nM | 977 nM | > 10000 nM | 4270 nM | 29500 nM | 
NC1Cc2cc3c(cc2C1)OCO3 [Methylenedioxy-aminoindane, 6,7-dihydro-5H-cyclopenta[f][1,3]benzodioxol-6-amine] | 641 nM | 4920 nM | 7590 nM |  | 1660 nM |  | Ki ([3]; SERT Ki): > 10000 nM; Ki ([3]; SERT pKi (mean +/- S.E.M)): 11700 nM
Cl.NC1CCc2cc3c(cc2C1)OCO3 (stereo not drawn) [Methylenedioxy-aminotetralin, 5,6,7,8-tetrahydrobenzo[f][1,3]benzodioxol-6-amine hydrochloride] | 894 nM | 4070 nM | 6310 nM | 1100 nM | 2290 nM | 2240 nM | 5-HT2B receptor affinity Ki [4]: submicromolar
CCNC(C)C(=O)c1ccc(C)cc1 (stereo not drawn) [Methylethcathinone, 2-ethylamino-1-(4-methylphenyl)propan-1-one hydrochloride] | 1670 nM | 565 nM | 832 nM | 1800 nM | 4370 nM | 3720 nM | 
CCCC(C(=O)c1ccc2ccccc2c1)N1CCCC1.Cl (stereo not drawn) [Naphyrone, 1-naphthalen-2-yl-2-pyrrolidin-1-ylpentan-1-one hydrochloride] |  |  |  |  |  |  | NET Ki [1]: submicromolar; Ki ([1]; NET Ki): 200 nM; DAT Ki [2]: submicromolar; Ki ([2]; DAT Ki): 53 nM; Ki ([2]; DAT pKi (mean +/- S.E.M)): 52.5 nM; Ki (NET): < 100 nM; SERT Ki [3]: submicromolar; Ki ([3]; SERT Ki): 235 nM; 5-HT2B receptor affinity Ki [4]: submicromolar; Ki (SERT): < 100 nM
